Experimental findings from ChEMBL document CHEMBL5303304, “EUbOPEN Chemogenomics Library - IncuCyte” (2023) are described below.

Assay type in all cases: toxicity, cell-based
One data set has as its system HEK-293T. Put plainly: Incucyte cell viability with HEK293T. Particulars: human, 10 µM, compound concentration 10 uM.
The test system of the next data set is Fibroblast. In words: Incucyte cell viability with human fibroblast. Particulars: 10 µM, compound concentration 10 uM.
The subject of the next data set is U2OS. Put plainly: Incucyte cell viability with U2OS. Particulars: human, 10 µM, compound concentration 10 uM.
Also: unitless GR value; below 1 slowed growth and below 0 cell loss.

Turning to `CC(=O)N1CCC(c2ccc(C(=O)NC3=NCCN3)cc2C(F)(F)F)CC1` [BI 0054], the “Growth Rate” value is listed as -0.32 in the data set on HEK-293T (0 h, replicate number 2); 0.29 with HEK-293T (6 h, replicate number 1); 0.6 with HEK-293T (12 h, replicate number 1); 0.87 with HEK-293T (18 h, replicate number 1); 0.81 in the data set with HEK-293T (24 h, replicate number 1); -1 with Fibroblast (0 h, replicate number 1). In addition, the “Growth Rate” value in the data set on Fibroblast (12 h, replicate number 2) is 0.87; in the data set with Fibroblast (18 h, replicate number 2) it was 0.82; with Fibroblast (24 h, replicate number 2), 0.88; with U2OS (0 h, replicate number 1) it was 0.95; in the data set on U2OS (6 h, replicate number 1) it was 0.82; in the data set on U2OS (12 h, replicate number 1), 0.97. Also, the “Growth Rate” value in the data set with U2OS (18 h, replicate number 2) is 0.92.
With `Cc1nnc2n1-c1sc3c(c1C(c1ccccc1Cl)=NC2)CC(C(=O)N1CCOCC1)C3` (stereo unspecified) [BEPAFANT], the “Growth Rate” value with HEK-293T (0 h, replicate number 1) is listed as 0.58; in the data set with HEK-293T (0 h, replicate number 2), 0; in the data set with HEK-293T (18 h, replicate number 2), 0.99; in the data set on Fibroblast (0 h, replicate number 2), -0.12; in the data set with Fibroblast (6 h, replicate number 1), 0.34; in the data set on Fibroblast (12 h, replicate number 2) it was 0.71. Moreover, the “Growth Rate” value with Fibroblast (18 h, replicate number 1) was 0.77; with Fibroblast (18 h, replicate number 2) it was 0.79; in the data set on Fibroblast (24 h, replicate number 1), 0.87; in the data set with Fibroblast (24 h, replicate number 2), 0.92; in the data set with U2OS (6 h, replicate number 1), 0.52; in the data set with U2OS (6 h, replicate number 2), 0.91. For the same compound, the “Growth Rate” value in the data set with U2OS (12 h, replicate number 1) is 0.9; with U2OS (24 h, replicate number 1), 0.89.
With `COc1ccc(OC)c(-c2ccc(NC(=O)c3ccncc3F)cc2)c1`, the “Growth Rate” value is given as -0.77 in the data set with HEK-293T (0 h, replicate number 1); -0.06 in the data set on Fibroblast (0 h, replicate number 1); -0.75 in the data set on Fibroblast (6 h, replicate number 2); 0.93 in the data set on Fibroblast (12 h, replicate number 2); -0.35 with Fibroblast (18 h, replicate number 1); 0.92 in the data set with Fibroblast (24 h, replicate number 2). The “Growth Rate” value in the data set on U2OS (0 h, replicate number 1) is reported as -0.54; in the data set with U2OS (0 h, replicate number 2), -0.01; in the data set on U2OS (6 h, replicate number 1), 0.57; in the data set with U2OS (6 h, replicate number 2) it was 0.63; with U2OS (12 h, replicate number 1) it was 0.56; in the data set on U2OS (12 h, replicate number 2) it was 0.84. The “Growth Rate” value in the data set on U2OS (18 h, replicate number 1) came to 0.74; in the data set with U2OS (18 h, replicate number 2), 0.87; with U2OS (24 h, replicate number 1) it was 0.87; in the data set with U2OS (24 h, replicate number 2), 0.91.
Regarding `CN[C@@H](C)C/C=C/c1cncc(OC(C)C)c1` [ISPRONICLINE], the “Growth Rate” value is reported as 0.9 in the data set with HEK-293T (0 h, replicate number 1); 0.86 in the data set with HEK-293T (0 h, replicate number 2); 0.31 with HEK-293T (6 h, replicate number 1); 0.02 in the data set on HEK-293T (12 h, replicate number 1); 0.32 in the data set with HEK-293T (18 h, replicate number 1); 0.28 with HEK-293T (24 h, replicate number 1). The “Growth Rate” value in the data set with HEK-293T (24 h, replicate number 2) is reported as 0.96; with Fibroblast (0 h, replicate number 1) it was -0.27; with Fibroblast (0 h, replicate number 2), -0.46; with Fibroblast (6 h, replicate number 2) it was 0.53; in the data set on Fibroblast (12 h, replicate number 1) it was -0.29; in the data set on Fibroblast (12 h, replicate number 2), 0.98. Also, the “Growth Rate” value is on record as 0.22 in the data set on Fibroblast (18 h, replicate number 1); 0.72 in the data set on Fibroblast (18 h, replicate number 2); 0.97 with Fibroblast (24 h, replicate number 1); 0.87 in the data set on Fibroblast (24 h, replicate number 2); -0.66 in the data set on U2OS (0 h, replicate number 1); 0.2 with U2OS (0 h, replicate number 2). Moreover, the “Growth Rate” value came out at 0.65 with U2OS (6 h, replicate number 1); 0.82 with U2OS (12 h, replicate number 1); 0.83 in the data set with U2OS (18 h, replicate number 1); 0.83 in the data set with U2OS (24 h, replicate number 1).
For the compound `COc1cc(/C=C(\C#N)C(=O)Nc2nnc(C(F)(F)F)s2)ccc1OCc1ccc(C(F)(F)F)cc1C(F)(F)F`, the “Growth Rate” value with HEK-293T (0 h, replicate number 1) stood at 0.87; in the data set on HEK-293T (6 h, replicate number 1), 0.32; in the data set on HEK-293T (6 h, replicate number 2), 0.92; in the data set with HEK-293T (12 h, replicate number 1) it was 0.72; in the data set with HEK-293T (12 h, replicate number 2), 0.82; in the data set with HEK-293T (18 h, replicate number 1), 0.91. Also, the “Growth Rate” value is on record as 1 in the data set with HEK-293T (24 h, replicate number 1); 0.98 in the data set with HEK-293T (24 h, replicate number 2); -0.12 in the data set on Fibroblast (0 h, replicate number 1); -0.69 in the data set with Fibroblast (12 h, replicate number 1); 0.17 with Fibroblast (12 h, replicate number 2); 0.9 in the data set on Fibroblast (18 h, replicate number 1). Moreover, the “Growth Rate” value in the data set on Fibroblast (18 h, replicate number 2) came out at 0.84; in the data set with Fibroblast (24 h, replicate number 1) it was 0.17; in the data set on Fibroblast (24 h, replicate number 2) it was 0.86; with U2OS (0 h, replicate number 1) it was 0.49; with U2OS (6 h, replicate number 1) it was 0.84; in the data set with U2OS (6 h, replicate number 2), 0.63. Further, the “Growth Rate” value with U2OS (12 h, replicate number 2) came to 0.81; with U2OS (18 h, replicate number 2), 0.85; in the data set with U2OS (24 h, replicate number 1) it was 0.97; in the data set on U2OS (24 h, replicate number 2), 0.87.
Turning to `O=C([O-])c1cc2cc(Cc3cccnc3)ccc2o1.[Na+]`, the “Growth Rate” value in the data set on HEK-293T (0 h, replicate number 2) worked out at 0.2; in the data set with HEK-293T (6 h, replicate number 1) it was 0.1; in the data set with HEK-293T (6 h, replicate number 2), 0.83; in the data set with HEK-293T (12 h, replicate number 1), 0.56; in the data set on Fibroblast (6 h, replicate number 1), 0.42; in the data set with Fibroblast (12 h, replicate number 2), 0.64. In addition, the “Growth Rate” value with U2OS (0 h, replicate number 1) is given as -0.13; in the data set on U2OS (6 h, replicate number 1), 0.77; in the data set on U2OS (12 h, replicate number 1), 0.4; with U2OS (12 h, replicate number 2), 0.98; in the data set on U2OS (18 h, replicate number 1), 1; in the data set on U2OS (24 h, replicate number 1), 0.71.
`CC(C)(C)OC(=O)CN(Cc1ccc(Cl)cc1)Cc1ccc([N+](=O)[O-])s1` [GSK-4112]: the “Growth Rate” value with HEK-293T (0 h, replicate number 1) is given as 0.04; with HEK-293T (0 h, replicate number 2), 0.51; in the data set on HEK-293T (6 h, replicate number 1), 0.86; in the data set on HEK-293T (6 h, replicate number 2) it was 0.58; in the data set with HEK-293T (12 h, replicate number 1) it was 0.78; in the data set with HEK-293T (12 h, replicate number 2), 0.91. In addition, the “Growth Rate” value is listed as 0.76 with HEK-293T (18 h, replicate number 1); 0.75 with HEK-293T (18 h, replicate number 2); 0.92 in the data set with HEK-293T (24 h, replicate number 2); 0.7 in the data set with Fibroblast (6 h, replicate number 1); -0.08 in the data set with Fibroblast (6 h, replicate number 2); 0.71 in the data set with Fibroblast (12 h, replicate number 1). The “Growth Rate” value was 0.06 with Fibroblast (12 h, replicate number 2); 0.74 with Fibroblast (18 h, replicate number 1); 0.06 in the data set on Fibroblast (18 h, replicate number 2); 0.72 with Fibroblast (24 h, replicate number 1); 0.19 in the data set with Fibroblast (24 h, replicate number 2); 0.82 with U2OS (12 h, replicate number 1). Besides, the “Growth Rate” value was found to be 0.94 in the data set on U2OS (18 h, replicate number 1) and 0.95 with U2OS (24 h, replicate number 1).
Turning to `C=CC(=O)N1CCC[C@@H](n2nc(-c3ccc(Oc4ccccc4)cc3)c3c(N)ncnc32)C1` [IBRUTINIB], the “Growth Rate” value in the data set on HEK-293T (0 h, replicate number 2) is recorded as -1; with HEK-293T (6 h, replicate number 1) it was -0.5; in the data set with HEK-293T (6 h, replicate number 2) it was -0.48; in the data set on HEK-293T (12 h, replicate number 1), -0.04; in the data set with HEK-293T (12 h, replicate number 2), -0.25; in the data set with HEK-293T (18 h, replicate number 1), 0.36. Besides, the “Growth Rate” value with HEK-293T (18 h, replicate number 2) was determined as 0.27; with HEK-293T (24 h, replicate number 1), 0.51; with HEK-293T (24 h, replicate number 2), 0.25; with Fibroblast (6 h, replicate number 1), 0.04; in the data set on Fibroblast (6 h, replicate number 2), 0.23; in the data set on Fibroblast (12 h, replicate number 2), 0.79. In addition, the “Growth Rate” value is listed as 0.66 in the data set on Fibroblast (18 h, replicate number 1); -0.06 in the data set on U2OS (0 h, replicate number 1); 0.8 with U2OS (0 h, replicate number 2); -0.04 with U2OS (6 h, replicate number 1); 0.61 in the data set with U2OS (6 h, replicate number 2); 0.53 in the data set with U2OS (12 h, replicate number 1). In addition, the “Growth Rate” value in the data set with U2OS (12 h, replicate number 2) was determined as 0.61; in the data set on U2OS (18 h, replicate number 1), 0.56; in the data set on U2OS (24 h, replicate number 1), 0.63; in the data set with U2OS (24 h, replicate number 2), 0.55.
